Where no end group is shown, it is not given here.
B1: soluble CD40L: soluble CD40L molecule used as positive control on BL41 cells (protein)
chain: MQKGDQNPQIAAHVISEASSKTTSVLQWAEKGYYTMSNNLVTLENGKQLTVKRQGLYYIYAQVTFCSNREASSQAPFIASLCLKSPGRFERILLRAANTHSSAKPCGQQSIHLGGVFELQPGASVFVNVTDPSQVSHGTGFTSFGLLKL

System: BL41 Burkitt's lymphoma cells
Assay: Inhibition of proliferation of BL41 cells (incorporation of tritiated thymidine)
Format: cell-based
Conditions: 24 hours culture, FIG. 4A, 50 μM to 50 nM
Procedure: Tritiated thymidine was added at a concentration of 1 μci/well (0.8.10^5 cells/well) for the last 8 hours of culture and the incorporation of tritiated thymidine measured using a gaseous scintillation β counter.
The second test is based on the property of certain B lymphomas to cease proliferation and enter apoptosis during the bridging of their membranous CD40 molecule (Tong et al., 1999). In this test, the BL41 cells are incubated with ligands CD40 and after 24 hours either the inhibition of proliferation of these cells is measured, by studying the incorporation of tritiated thymidine, or the percentage of apoptotic cells is measured with a flow cytometry study (FIGS. 4A and 4B).
Certain B lymphomas enter apoptosis when their CD40 molecule is bridged by an anti-CD40 antibody or by CD40L which is soluble independently from the CD95 molecule. This induction of apoptosis is expressed as a decrease in proliferation measured by the incorporation of tritiated thymidine. The agonist ligands of CD40 will induce an increase in apoptosis and as a result a decrease in the incorporation of tritiated thymidine.
The BL41 Burkitt's lymphoma cells (4.10^5/mL) are cultured in the presence of the different ligands at the chosen concentration. After 24 hours, the cells are either incubated for 8 hours with tritiated thymidine (1 μci/well) to measure the proliferation or are labelled with Annexin V-FITC and propidium iodide to evaluate the percentage of apoptotic cells with flow cytometry.

Molecule | inhibition of the proliferation of BL41 cells (in words)
L7-3: L7 analogue: replacement of the aminohexanoic acid spacer arm by a glycine (KGYYG; not fully specified (C-terminus); also: L7 analogue: aminohexanoic acid spacer replaced by glycine, core as L7) | only have a small or no effect
B1 | greatly inhibits
